Read-outs that look alike come from different tables or passages of the source. Marks after values point to notes of the source that are not given here.
Key:
[1] = tested on: RET fusion-positive NSCLC; conditions: cited from earlier work
TT cells = assay: Tumor cell proliferation in vitro; format: cell-based, human; conditions: Homo sapiens
[2] = tested on: human esophageal cancer KYSE-150 xenografts; assay: KYSE-150 xenografts in nude mice; format: in vivo
BEL-7402 cells = assay: Tumor cell proliferation in vitro; format: cell-based; conditions: Homo sapiens, Bel-7402; read-out: IC50, proliferation
KYSE-150 cells = assay: Tumor cell proliferation in vitro; format: cell-based, human; conditions: Homo sapiens, KYSE-150; read-out: IC50, proliferation
VEGFR and ERK activation = assay: VEGF165-stimulated activation of VEGFR and ERK in HUVEC cells; format: cell-based, human; conditions: 50 ng/mL VEGF165, concentration-dependent
EGFR and ERK activation = assay: EGF-stimulated activation of EGFR and ERK in A431 cells; format: cell-based, human; conditions: 10 ng/mL EGF, concentration-dependent
A375 cells = assay: Tumor cell proliferation in vitro; format: cell-based, human; conditions: Homo sapiens, A-375
8305C cells = assay: Tumor cell proliferation in vitro; format: cell-based; conditions: Homo sapiens
A498 cells = assay: Tumor cell proliferation in vitro; format: cell-based; conditions: Homo sapiens
SGC-7901 cells = assay: Tumor cell proliferation in vitro; format: cell-based, human; conditions: Homo sapiens, SGC-7901; SGC7901
HCT116 cells = assay: Tumor cell proliferation in vitro; format: cell-based; conditions: Homo sapiens, HCT-116
[3] = tested on: human gastric cancer SGC-7901 tumors; assay: SGC-7901 tumors in nude mice; format: in vivo
Excerpt: (§1) was higher than that of vandetanib .
as §1
Table S16. Efficacy of HA121-28 on human gastric cancer SGC-7901 tumors

CFPAC-1 cells = assay: Tumor cell proliferation in vitro; format: cell-based; conditions: Homo sapiens
HUVEC cells = assay: cells; conditions: Homo sapiens
[4] = ref Phase I clinical study results of vandetanib; cited from earlier work
[5] = tested on: human melanoma A375 tumors; assay: A375 tumors in nude mice; format: in vivo
A431 cells = assay: Tumor cell proliferation in vitro; format: cell-based, human; conditions: Homo sapiens, A-431, read-out: IC50, proliferation
[6] = tested on: human thyroid cancer TT tumors; assay: TT tumors in nude mice; format: in vivo; conditions: TT tumors
Excerpt: as §1, §1
Table S15. Efficacy of HA121-28 on human thyroid cancer TT tumors

[7] = tested on: human esophageal cancer ECA-109 tumors; assay: ECA-109 tumors in nude mice; format: in vivo; conditions: 8 mg/kg

In the case of `CO[C@]1(C(=O)N[C@@H](C)c2ccc(-n3cc(F)cn3)nc2)CC[C@H](c2nc(C)cc(Nc3cc(C)[nH]n3)n2)CC1` [Pralsetinib], the ORR ([1]; platinum-pretreated patients ref 38) is listed as 61%.
For `COc1ccc(CN2C3CC2CN(c2ccc(-c4cc(OCC(C)(C)O)cn5ncc(C#N)c45)cn2)C3)cn1` [Selpercatinib], the ORR ([1]; platinum-pretreated patients ref 37) is listed as 61%.
With `COc1cc2c(Nc3ccc(Br)cc3F)ncnc2cc1OCC1CCN(C)CC1` [vandetanib, reference compound] the IC50 (TT cells) was 3570 ± 38.2 nM, the “RTV X±SD” value ([2]; 12.5 mg/kg) was 5.2±1.9 and the T/C ([2]; 12.5 mg/kg) was 34.2%. For the same molecule, the “Terminal Tumor Volume” value ([2]; 12.5 mg/kg) was 847.0±247.2** mm^3, the “RTV X±SD” value ([2]; 25 mg/kg) was 2.6±0.7 and the T/C ([2]; 25 mg/kg) was 16.8%. For the same molecule, the “Terminal Tumor Volume” value ([2]; 25 mg/kg) was 489.8±273.9** mm^3, the “RTV X±SD” value ([2]; 50 mg/kg) was 1.3±0.6 and the T/C ([2]; 50 mg/kg) was 8.4%. The “Terminal Tumor Volume” value ([2]; 50 mg/kg) was 273.9±189.8** mm^3, the IC50 (BEL-7402 cells) was 15100 ± 1130 nM and the IC50 (KYSE-150 cells) was 1500 ± 135 nM. For the same molecule, the “activation of VEGFR and downstream ERK” value (VEGFR and ERK activation) was “significantly inhibited”, the “activation of EGFR and downstream ERK” value (EGFR and ERK activation) was “significantly inhibited” and the IC50 (A375 cells) was 2190 ± 318 nM. It also gave an IC50 (8305C cells) of 1250 ± 96.3 nM, an IC50 (A498 cells) of 1030 ± 42.7 nM and an IC50 (SGC-7901 cells) of 4370 ± 441 nM. For the same molecule, the IC50 (HCT116 cells) was 3190 ± 688 nM, the “RTV ±SD” value ([3]; 50 mg/kg) was 3.6±1.7 and the T/C ([3]; 50 mg/kg) was 23.0%. For the same molecule, the “Terminal Tumor Volume” value ([3]; 50 mg/kg) was 690.9±259.8** mm^3, the “RTV ±SD” value ([3]; 75 mg/kg) was 2.3±1.0 and the T/C ([3]; 75 mg/kg) was 14.3%. The “Terminal Tumor Volume” value ([3]; 75 mg/kg) was 486.9±221.2** mm^3, the IC50 (CFPAC-1 cells) was 336 ± 10 nM and the IC50 (HUVEC cells) was 117 nM. For the same molecule, the MTD [4] was 500 mg/day, the “RTV ±SD” value ([5]; 12.5 mg/kg) was 22.1±17.2 and the T/C ([5]; 12.5 mg/kg) was 108.1%. The “Terminal Tumor Volume” value ([5]; 12.5 mg/kg) was 2824.1±1001.2 mm^3, the “RTV ±SD” value ([5]; 25 mg/kg) was 11.4±4.7 and the T/C ([5]; 25 mg/kg) was 55.7%. For the same molecule, the “Terminal Tumor Volume” value ([5]; 25 mg/kg) was 1719.9±822.4 mm^3, the “RTV ±SD” value ([5]; 50 mg/kg) was 7.2±1.4 and the T/C ([5]; 50 mg/kg) was 35.0%. The IC50 (A431 cells) was 1140 ± 255 nM, the “RTV ±SD” value ([6]; 25 mg/kg) was 2.1±1.0 and the T/C ([6]; 25 mg/kg) was 34.1%. For the same molecule, the “Terminal Tumor Volume” value ([6]; 25 mg/kg) was 302.4±91.1** mm^3, the “RTV ±SD” value ([6]; 50 mg/kg) was 1.0±0.4 and the T/C ([6]; 50 mg/kg) was 17.0%. For the same molecule, the “Terminal Tumor Volume” value ([6]; 50 mg/kg) was 155.5±82.1** mm^3, the “RTV ±SD” value ([6]; 75 mg/kg) was 0.5±0.2 and the T/C ([6]; 75 mg/kg) was 8.9%. For the same molecule, the “Terminal Tumor Volume” value ([6]; 75 mg/kg) was 100.1±62.5** mm^3.
With `N#CC1(c2ccc(NC(=O)c3cccnc3NCc3ccncc3)cc2)CCCC1` [Apatinib] the “RTV ±SD” value ([3]; 200 mg/kg) was 4.2±1.2, the T/C ([3]; 200 mg/kg) was 26.5% and the “Terminal Tumor Volume” value ([3]; 200 mg/kg) was 793.5±324.4** mm^3.
With `N.N.[Cl][Pt][Cl]` [Cisplatin] the “RTV X±SD” value ([2]; 10 mg/kg) was 5.0±3.9, the T/C ([2]; 10 mg/kg) was 32.6% and the “Terminal Tumor Volume” value ([2]; 10 mg/kg) was 694.4±237.4** mm^3. For the same molecule, the “RTV ±SD” value [7] was 6.4±2.9, the T/C [7] was 62.0% and the “Terminal Tumor Volume” value [7] was 1,580.0±952.4 mm^3.

Source: publication PMC11868595, “Safety, pharmacokinetics and efficacy of HA121-28 in patients with advanced solid tumors and RET fusion-positive non-small-cell lung cancer: a multicenter, open-label, single-arm phase 1/2 trial” (Signal Transduction and Targeted Therapy, 2025)
